Target: T1, recombinant DPP-4 enzyme D4943 (Homo sapiens, UniProt P27487)
T1 construct: purchased Sigma-Aldrich D4943
Assay: DPP-4 enzyme inhibition, chromogenic substrate Gly-Pro-pNA, absorbance at 405 nm
Assay type: biochemical
Conditions: 37 °C for 30 min, pH 7.6, dilution range 10^−4 to 10^−11 M
Experimental: The DDP-4 enzyme inhibitory activities of the synthesised compounds were assessed using protocols similar to those described in the literature. For IC50 values determination, inhibitory assays were carried out using recombinant DPP-4 enzyme D4943, chromogenic substrate Gly-Pro-pNA and buffer system (50 mM Tris-HCl, 50 mM NaCl, 0.01% Triton, pH = 7.6). After short incubation (37 °C for 30 min), the absorbance at 405 nm was measured. The procedure was initially optimised using reference compounds. Each inhibitor was analysed in the dilution range from 10^−4 to 10^−11 M. Certified samples of commercial drugs-inhibitors of DPP-4 (vilda-, sita-, alo- and linagliptin) with known IC50 were used as reference compounds. […] We analysed every compound in the dilution range […] (Table 3).
For the inhibitory assays, we used the substrate Gly-Pro-p-nitroanilide (H-Gly-Pro-pNA HCl, G0513) and recombinant dipeptidyl peptidase-4 enzyme (D4943) that were purchased from Sigma-Aldrich (St. Louis, MO, USA). […] The mixtures were incubated at 37 °C for 30 min, and the absorbance at 405 nm was measured using the microplate reader ChemWell (Awareness Technology Inc., Palm City, FL, USA). DPP-4 inhibitory activities for each test compound were calculated. […]

T1 sequence (P27487 whole entry): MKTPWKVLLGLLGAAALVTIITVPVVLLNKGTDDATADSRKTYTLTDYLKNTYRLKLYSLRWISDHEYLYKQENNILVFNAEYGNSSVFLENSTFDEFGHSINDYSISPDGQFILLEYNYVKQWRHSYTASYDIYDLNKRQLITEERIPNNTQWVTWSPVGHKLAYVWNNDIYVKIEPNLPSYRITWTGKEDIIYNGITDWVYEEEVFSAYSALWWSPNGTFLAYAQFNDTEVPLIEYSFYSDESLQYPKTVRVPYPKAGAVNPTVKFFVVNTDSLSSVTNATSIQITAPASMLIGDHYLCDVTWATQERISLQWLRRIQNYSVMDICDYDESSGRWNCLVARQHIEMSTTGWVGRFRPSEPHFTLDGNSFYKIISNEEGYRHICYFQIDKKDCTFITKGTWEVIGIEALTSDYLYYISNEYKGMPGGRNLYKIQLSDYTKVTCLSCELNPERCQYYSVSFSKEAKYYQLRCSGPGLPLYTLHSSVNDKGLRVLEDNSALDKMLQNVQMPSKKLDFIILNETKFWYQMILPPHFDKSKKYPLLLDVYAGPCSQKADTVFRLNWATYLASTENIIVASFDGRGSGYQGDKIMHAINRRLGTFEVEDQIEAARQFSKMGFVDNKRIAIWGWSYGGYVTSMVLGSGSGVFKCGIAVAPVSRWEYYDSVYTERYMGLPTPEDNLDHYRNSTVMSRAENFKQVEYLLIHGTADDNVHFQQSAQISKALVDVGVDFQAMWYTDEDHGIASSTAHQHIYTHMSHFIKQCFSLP

“( 3R,S)-2-[(3R)-3-Amino-4-(2,4,5-trifluorophenyl)butanoyl]-endo-2-azabicyclo[2.2.1]hepnane-3-carbonitrile p-toluenesulpfonate [12c (S-endo): 12d (R-endo), 1:1 mixture]” was tested, and the IC50 was greater than 1000 nM.

Reference: publication PMC8949241, “Design, Synthesis and Biological Evaluation of Neogliptin, a Novel 2-Azabicyclo[2.2.1]heptane-Based Inhibitor of Dipeptidyl Peptidase-4 (DPP-4)” (Pharmaceuticals, 2022)
